Entries after “also recorded” stand apart in the source; their conditions may differ.
Tests used:
IMQ-induced psoriasis [1] = experiment: Imiquimod (IMQ)-induced dermal inflammation/psoriasis model, Study 2; assay type: in vivo, mice; conditions: for Rate of reduction of DAI, % change from 1st dose administration: Compound 2 2.5 mg/kg, cyclophosphamide 10 mg/kg
Method: Forty (40) male BALB/c mice (Biological E Limited, Hyderabad (CPCSEA registration number: 36/99/CPCSEA)) were divided into four (4) groups consisting of ten (10) mice each. Animals were randomized based on their body weight. The groups were designated as Group-I (Naïve), Group-II (IMQ; vehicle (PEG 400 and HPBCD)), Group-III (IMQ; Compound 2 (2.5 mg/kg)) and […] (IMQ; cyclophosphamide (10 mg/kg)).
A small area on the dorsum of each mouse was shaved, ensuring that these areas were of equal size/area. Psoriasis was induced in Groups II to IV by topical application of 50 mg of IMQ cream daily from Day 1 to Day 6 on the dorsum of the animals. On Day 1 and Day 2 of the study, four hours after topical application of IMQ, Compound 2 or positive control (cyclophosphamide) or vehicle were administered to animals in pertinent groups. Of note, animals in Group II and Group III were subjected to subcutaneous injections, whereas animals in Group IV received oral administration. The Compound 2, vehicle and cyclophosphamide treatment was terminated on Day 2. These groups of animals were maintained on daily IMQ treatments until Day 6. On Day 7, the psoriasis-induced animals were re-randomized into 3 groups consisting of 10 animals each based on Cumulative Disease Activity Index (CDAI). From Day 7 to Day 9, animals received vehicle or positive control or Compound 2. Of note, on these days animals were not treated with IMQ. From Day 10 to Day 14, the animals were treated alternatively with IMQ (Days 10, 12 and 14), or vehicle, positive control or Compound 2 (Days 11, 13).
All animals were observed daily for a period of 16 days for gross observations, body weight and feed and water intake. On Days 1 and 2, scorings of erythema, scaling, folding and thickening of skin were recorded 2 hours after administration of vehicle/positive control/test compounds, and on Days 3 to 14 scorings were recorded 4 hours after IMQ application, or administration of positive control, vehicle or Compound 2.
Vehicle was prepared by dissolving 40 mg of HPBCD in 70.0 mL of distilled water. Compound 2 was prepared by dissolving 3.59 mg in 0.5% PVP and 0.5% Pluronic. Cyclophosphamide was prepared by dissolving 500 mg of CMC in 100 mL distilled water.
The experimental results shown in Table 10 are expressed as mean±SEM. Data was assessed using one-way ANOVA, and post hoc analysis was performed using Dunnett's test.

IMQ-induced psoriasis [2] = experiment: Imiquimod (IMQ)-induced dermal inflammation/psoriasis model, Study 1; assay type: in vivo, mice; conditions: 1 μM, Day 1 to Day 13 daily
Source text: Forty (40) male BALB/c mice aged 6 to 8 weeks were used with a pretreatment body weight of 22 to 30 g. The BALB/c mice were randomized into four (4) groups of 10 mice per group. A small area (about 2×2 cm^2) of skin on the dorsum of all the animals was neatly shaved. Group-I animals served as Naïve animals. Psoriasis was induced in Groups II to IV [Group II (IMQ; vehicle), Group III (IMQ; […] Animals were observed daily for a period of 13 days for any treatment-related symptoms. The daily observations included body weight, feed intake, skin thickening, scaling, folding, erythema, nasal discharge, movement, respiration, hair, distended abdomen, skin condition, fur, mucous membrane, presence or absence of secretions, eye condition, tail elevation, motor activity, posture and gait. Severity of damage to the dorsal portion of the skin was assessed by assigning erythema, scaling, folding and skin thickening scores based on external observations of skin, according to rubric in Table 9. […] Compound 2 was prepared by dissolving 1.47 mg of Compound 2 in 300 μL of 100% DMSO.

Z-138 xenograft tumors = experiment: Z-138 lymphoma xenograft in SCID mice; assay type: in vivo
Method: Z-138 (ATCC # CRL-3001) mantle cell lymphoma cells were obtained from ATCC. These cells were grown in IMEM medium supplemented with 10% horse serum, 1% penicillin and streptomycin, and 2 mM L-glutamine. […] Twenty-four (24) female CB-17 SCID mice (Charles River Labs strain code 236), aged 5 to 6 weeks were used. The SCID mice were inoculated in the left flank with Z-138 cells in a volume of 0.2 mL, equivalent to 4×10^7 cells per mouse. […] Mice were allocated to […] prior to the initiation of treatment based on tumor volume such that mean tumor volume in each group was within the range of 77 to 92 mm^3. […] Animals were fed with Labdiet® 5001 rodent chow and sterile water ad libitum. […] Animals with weight loss of more than 20% of their starting weight were euthanized. Mice with weight loss of more than 15% of their starting weight were not treated again until weight loss recovered to less than 5% of their starting weight. Any animals with a tumor volume of more than 1500 mm^3 were euthanized. Dosing solutions were prepared fresh on each day of dosing. […] This was prepared by dissolving the lyophilized powder in sterile water.

PMA-induced psoriasis = PMA-induced psoriasis in female BALB/c mice; assay type: in vivo; conditions: 10 μM topical, daily
Method: Twenty-four (24) female BALB/c mice, aged 6 to 8 weeks with a body weight between 22 and 30 g were used. The mice were randomized into […]. The grouping of animals was as follows: Group I (Naïve; ethanol), Group II (PMA; ethanol), Group III (PMA; […] Twenty (20) μL of PMA (4 μg/20 μL of acetone) was applied topically on the upper surface of pinna of ear of all animals in Group II to Group IV. PMA was applied daily on left ear and on alternate days (M-W-F) on right ear from Day 1 to Day 9. Thirty (30) minutes after application of PMA, vehicle or standard compound (betamethasone) or Compound 2 was applied topically to the ears of animals from different groups. […] Animals were observed daily for a period of 12 days for any treatment related symptoms. Basal ear thickness was recorded in all animals (before application of PMA) using digital screw gauge at time T0 (Day 1). […] Commercially available 100% DMSO (LR Grade) and ethanol (LR Grade) were used to prepare the formulations. PMA was prepared by dissolving 10 mg of PMA in 50.0 mL of acetone. Compound 2 was prepared by dissolving 1.47 mg of Compound 2 in 300 μL of 100% DMSO.

In the case of `O=C(/C=C\n1cnc(-c2cc(C(F)(F)F)cc(C(F)(F)F)c2)n1)NNC(=O)CN1CCOCC1` [Compound 2, (Z)-3-(3-(3,5-bis(trifluoromethyl)phenyl)-1H-1,2,4-triazol-1-yl)-N′-(2-morpholinoacetyl)acrylohydrazide], the “body weight, food consumption and water intake” value (IMQ-induced psoriasis [1]; 2.5 mg/kg subcutaneous) is reported as “without greatly impacting the consumption of food or water”, the “rate of reduction of disease activity index versus vehicle” value (IMQ-induced psoriasis [1]; 2.5 mg/kg subcutaneous) is reported as “significantly greater than that observed in animals treated with vehicle; also recorded: diminished IMQ-induced disease manifestation” and the “Rate of reduction of DAI, % change from 1st dose administration” value (“Rate of reduction of DAI, % change” for short) (IMQ-induced psoriasis [1]; Day 7, 4 hr. post-IMQ/drug administration readings) is reported as −30.9%. The “Rate of reduction of DAI, % change” value (IMQ-induced psoriasis [1]; Day 7, pre-IMQ/drug administration readings) was 0.0%, the “Rate of reduction of DAI, % change” value (IMQ-induced psoriasis [1]; Day 8, 4 hr. post-IMQ/drug administration readings) was −35.3% and the “Rate of reduction of DAI, % change” value (IMQ-induced psoriasis [1]; Day 8, pre-IMQ/drug administration readings) was −33.8%. The “Rate of reduction of DAI, % change” value (IMQ-induced psoriasis [1]; Day 9, 4 hr. post-IMQ/drug administration readings) was −63.2%, the “Rate of reduction of DAI, % change” value (IMQ-induced psoriasis [1]; Day 9, pre-IMQ/drug administration readings) was −58.8% and the “Rate of reduction of DAI, % change” value (IMQ-induced psoriasis [1]; Day 10, 4 hr. post-IMQ/drug administration readings) was −88.2%. For the same compound, the “Rate of reduction of DAI, % change” value (IMQ-induced psoriasis [1]; Day 10, pre-IMQ/drug administration readings) was −88.2%, the “Rate of reduction of DAI, % change” value (IMQ-induced psoriasis [1]; Day 11, 4 hr. post-IMQ/drug administration readings) was −70.6% and the “Rate of reduction of DAI, % change” value (IMQ-induced psoriasis [1]; Day 11, pre-IMQ/drug administration readings) was −73.5%. The “Rate of reduction of DAI, % change” value (IMQ-induced psoriasis [1]; Day 12, 4 hr. post-IMQ/drug administration readings) was −73.5%, the “Rate of reduction of DAI, % change” value (IMQ-induced psoriasis [1]; Day 12, pre-IMQ/drug administration readings) was −80.9% and the “Rate of reduction of DAI, % change” value (IMQ-induced psoriasis [1]; Day 13, 4 hr. post-IMQ/drug administration readings) was −60.3%. For the same compound, the “Rate of reduction of DAI, % change” value (IMQ-induced psoriasis [1]; Day 13, pre-IMQ/drug administration readings) was −61.8%, the “Rate of reduction of DAI, % change” value (IMQ-induced psoriasis [1]; Day 14, 4 hr. post-IMQ/drug administration readings) was −63.2% and the “Rate of reduction of DAI, % change” value (IMQ-induced psoriasis [1]; Day 14, pre-IMQ/drug administration readings) was −66.2%. For the same compound, the “Rate of reduction of DAI, % change” value (IMQ-induced psoriasis [1]; Day 15, pre-IMQ/drug administration readings) was −64.7%, the “body weight, food and water intake” value (IMQ-induced psoriasis [2]) was “without adversely affecting body weight, food and water intake” and the “disease activity index / IMQ-induced disease manifestation” value (IMQ-induced psoriasis [2]) was “diminished IMQ-induced disease manifestation; also recorded: reduction in disease activity index in comparison to the vehicle treated group”. For the same compound, the weight loss (Z-138 xenograft tumors; 15 mg/kg PO MWF) was “Some weight loss was observed”, the “tumor growth relative to vehicle (area under the growth curves, ANOVA)” value (Z-138 xenograft tumors; Compound 2 15 or 7.5 mg/kg PO MWF, cyclophosphamide 80 mg/kg IP) was “antitumor effect at both 7.5 mg/kg and 15 mg/kg doses in a dose dependent manner” and the anti-psoriatic activity (PMA-induced psoriasis) was “statistically significant anti-psoriatic activity”. The “left and right ear disease activity index (DAI)” value (PMA-induced psoriasis) was “prominent reduction in PMA-induced increases” and the “left and right ear thickness” value (PMA-induced psoriasis) was “prominent reduction in PMA-induced increases”.
